Legend:
[1] = test system: RNA2 (mismatched RNA, G→U); assay: Melting temperature (Tm) of PNA:RNA duplexes, single-mismatch RNA; type: binding; conditions: UV absorbance at 260 nm, PBS buffer pH 7 with urea 5 M, strand concentration 5 μM
Description: Sequence selectivity is a very important issue in view of the use of PNAs in cellular systems, because partial hybridisation might occur with other unrelated miRNAs or, most importantly, with mRNA targets. We analysed the sequence selectivities of our PNAs with stricter models (DNA2 and RNA2) involving single base mismatches (G→T or G→U) located in the middle of the target sequences. In each case the sequence selectivity was confirmed by significant lowering of the melting temperature. The ranges of ΔTm due to the presence of these single mismatches were 8–21 °C for DNA, with the maximum drop in the case of PNA4 and the minimum observed in that of PNA6. For the latter it should be considered that the mismatch was facing the last chiral monomer, preventing the cooperative effect observed in the case of 2D-modifed highly constrained PNA.[22]
(§1) Measurements of Tm values: The Tm values were determined with a Lambda Bio 20 spectrophotometer and a Peltier PTP6 temperature programmer. Thermal denaturation profiles were measured by monitoring the absorbance at 260 nm from 18 to 90 °C with a heating rate of 1 °C min^−1 and recording every 0.1 °C. Measurement conditions: [PNA]=[DNA] or [RNA]=5 μM in PBS buffer [pH 7.0, NaCl (100 mM), NaH2PO4⋅H2O (10 mM), EDTA (0.1 mM)] with urea (5 M).

[2] = test system: RNA1 (target region of miR-210); assay: Melting temperature (Tm) of PNA:RNA duplexes, full-match RNA; type: binding; conditions: UV absorbance at 260 nm, strand concentration 5 μM
Description: as §1, with “Measurement conditions: [PNA]=[DNA] or [RNA]=5 μM in PBS buffer [pH 7.0, NaCl (100 mM), NaH2PO4⋅H2O (10 mM), EDTA (0.1 mM)] with urea (5 M).” left out

K562 cells = assay: Mithramycin-induced erythroid differentiation (benzidine-positive cells); type: cell-based, human; conditions: MTH 15 nM, PNA 2 μM, benzidine-positive cells after 5 days of induction, three independent experiments
Description: In order to evaluate effects on mithramycin-induced cellular differentiation, K562 cells were treated with MTH in the presence of pept-1, PNA1, PNA2 and PNA4 (each 2 μM). The proportions of benzidine-positive cells were determined after 5 days of induction.
Human cell lines and culture conditions: Human leukaemia K562 cells were cultured under humidified CO2 (5 %)/air in RPMI 1640 medium (Sigma) supplemented with foetal bovine serum (FBS, 10 %, Analitical de Mori, Milan, Italy), penicillin (50 units mL^−1) and streptomycin (50 μg mL^−1).[26] Mithramycin (MTH) was from Sigma. Stock solutions of MTH (100 μM) were stored at −20 °C in the dark and diluted immediately before use. Treatment of K562 cells with MTH was carried out by addition of the appropriate drug concentrations at the beginning of the cultures (cells were seeded at 30 000 mL^−1). The medium was not changed during the induction period. To determine antiproliferative activity, cell growth was studied by determining the cell number per mL with a Z1 Coulter Counter (Coulter Electronics, Hialeah, FL, USA). Erythroid differentiated K562 cells containing haemoglobin were detected by specific reaction with a benzidine/hydrogen peroxide solution as reported elsewhere.[26] The final concentration of benzidine was 0.2 % in glacial acetic acid (5 M) and H2O2 (10 %).

H-C5LArgC5LArgG5LArgC5LArgT5LArgG5LArgT5LArgC5LArgACACGCACAG-NH2 [PNA4, 5L Arg (C5) backbone-modified 18-mer PNA, model 2, stretch of consecutive modified monomers]
Tm, RNA2 in urea (5 M) [1]: 75 °C | Tm, RNA1 in water ([2]; PBS buffer pH 7, no urea): >90 °C | Tm, RNA1 in urea (5 M) ([2]; PBS buffer pH 7 with urea 5 M): 86 °C | effect on MTH-induced erythroid differentiation (K562 cells): able to inhibit erythroid differentiation

Source: PMC3401907, “Cellular Uptakes, Biostabilities and Anti-miR-210 Activities of Chiral Arginine-PNAs in Leukaemic K562 Cells” (Chembiochem, 2012)
